Source: patent publication US11986482B2, “Method of promoting antitumor or anti-cancer immunity” (City University of Hong Kong, priority 2021, dated 2024)
Entries after “also recorded” stand apart in the source; their conditions may differ.

Legend:
[1] = system: LL/2 cells; test: LL/2 mouse lung cancer model in C57BL mice; assay type: in vivo; details: 30 mg/kg, daily, oral gavage, 4 weeks
Procedure: C57BL mice (n=5) are injected subcutaneously with LL/2 cells. After tumors reach around 5 mm in size, the mice are treated with either buffer (PBS) or 6J1 (30 mg/kg, daily, oral gavage) for 4 weeks. After 4 weeks, primary tumors and lungs are collected for analysis (FIGS. 16a and 16b). Tumor volumes are measured daily (p<0.001) in FIG. 16c.

[2] = system: HeLa cells; test: DQ-BSA endocytic trafficking assay; assay type: cell-based; details: 1 μM, 3 h then 6 h with 10 μg/ml DQ-green BSA, flow cytometry
Procedure: (§1) A DQ-BSA endocytic trafficking assay screens these compounds. DQ-BSA, a self-quenching dye, is internalized into the cytoplasm by endocytosis, after which it is delivered to the lysosomes for degradation to relieve fluorescence-quenching, resulting in bright fluorescence in cells. HeLa cells are plated on 6-well plates and treated with the indicated compound for 3 h. Then, cells are replaced with Trafficking media containing 10 μg/ml DQ-green BSA with or without drugs (1 μM) and incubated at 37° C. in a 5% CO2 humidified cell culture chamber another 6 h followed by Flow cytometry analysis. […] Inventors also test whether these hit compounds can inhibit the recycling endosomal pathway by performing the fluorescent transferrin conjugates recycling assay. Iron-bound transferrin interacts with its receptor (TfR) to trigger the internalization of the iron-transferrin-TfR complex via clathrin-mediated endocytosis. Fe^3+ irons are subsequently dissociated from their ligands in the acidic endosome environment and released into the cytoplasm. […] Thus, the fluorescence intensity of fluorescent transferrin conjugates-labeled cells can reflect the recycling endocytic trafficking process. […] Cells are collected for flow cytometry analysis, and the mean fluorescence intensity of transferrin is quantified.

[3] = system: HeLa cells; test: Fluorescent transferrin conjugates recycling assay; assay type: cell-based; details: compound 3 h, Transferrin-488 25 μg/ml, flow cytometry
Procedure: as §1

[4] = Oral bioavailability (stated, no method); details: in vivo
[5] = system: EGFR; test: EGFR degradation assay (EGF-488); assay type: cell-based; details: HeLa cells, 6J1 1 μM 3 h, EGF-488 2 μg/ml, 2 h of EGF treatment
Procedure: Furthermore, HeLa cells are pretreated with DMSO or 6J1 (1 μM) for 3 h. Then, cells are incubated with EGF-488 (2 μg/ml) on ice for 1 h followed by incubating in the complete medium at 37° C. in a CO2 incubator. Cells are fixed at the indicated times and imaged.

[6] = system: 4T1 cells; test: Chemokine level in supernatant of 4T1 cells; assay type: cell-based, mouse; details: in vitro, 1 μM
[7] = system: PD-L1; test: Plasma membrane PD-L1 level in 4T1 cells (flow cytometry); assay type: cell-based, mouse; details: 1 μM
Procedure: The current PD-L1 and PD1 therapies apply PD-L1 or PD1 monoclonal antibodies to block the PD-L1/PD1 signaling, which results in cytotoxic T cells recognizing and killing the tumor cells. […] First, flow cytometry-based quantification of plasma membrane levels of PD-L1 in 4T1 cells treated with or without 6J1 (1 μM) for 24 h. 4T1 cells are treated with or without 6J1 (1 μM) for 24 h. The supernatant is collected, and the concentration of extracellular vesicle is determined using a Nanosight nanoparticle analyzer in FIG. 8b. The exosomes are also collected and subjected to western blot analysis of the EVs marker and PD-L1 in FIG. 8c.
Therefore, it is possible that the increased exosomal PD-L1 secretion induced by 6J1 may still suppress the tumor-infiltrating T cell cytotoxicity in vivo, even though 6J1 reduces the cell surface expression level of PD-L1 on the tumor cells. To evaluate the role of exosomal PD-L1 in the tumor microenvironment and tumor progression in mice, inventors knock out Rab27a in 4T1 cells to inhibit the secretion of exosomes. 4T1-shNC or 4T1-shRab27A cells are treated with or without 6J1 (1 μM). The supernatant is collected, and the concentration of extracellular vesicle is determined using a Nanosight nanoparticle analyzer. […] Inventors analyze the plasma membrane levels of PD-L1 in 4T1-shNC or 4T1-shRab27A cells treated with or without 6J1 (1 μM). […] Next, control or Rab27a-knockout 4T1 cells are orthotopically transplanted into syngeneic fat pads of female Balb/c. The mice are randomly divided (n=5 per group) and treated with either buffer or 6J1 (30 mg/kg, daily) via oral gavage. […] Inventors also perform the immunostaining of CD8 and Granzyme B in the tumor sections. […] Since enhanced antitumor immunity leads to increased apoptosis in tumors, inventors assess the levels of cleaved caspase3 (CCA3), one of the markers of apoptosis, in tumor sections as well.
Finally, inventors assess the combinatory effects of 6J1 with GW4869, an exosome secretion inhibitor, in the aforementioned orthotopic mammary carcinoma mouse models. […]

[8] = biological target: T1, Rab27a (Homo sapiens, UniProt P51159); test: GST-SHD pulldown assay of Rab27a activity; assay type: cell-based; details: HeLa cells, 1 μM
T1 construct: western blot analysis of Rab27a in HeLa cells treated with or without 6J1 (1 μM) through a GST-SHD pulldown assay; endogenous in cells; host or cells: HeLa cells
T1 sequence (P51159 1-221): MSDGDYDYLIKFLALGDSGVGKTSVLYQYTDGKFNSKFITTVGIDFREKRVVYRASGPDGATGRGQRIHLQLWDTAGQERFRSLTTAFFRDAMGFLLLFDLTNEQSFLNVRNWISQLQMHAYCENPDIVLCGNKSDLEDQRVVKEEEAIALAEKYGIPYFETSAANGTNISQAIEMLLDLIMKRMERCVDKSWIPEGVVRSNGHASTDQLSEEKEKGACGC
Procedure: It has previously been shown that interfering with endosomal trafficking promotes exosome secretion. Moreover, PD-L1 has been reported to be enriched in exosomes and secreted outside the cell. Thus, inventors speculate that 6J1 may induce the secretion of the PD-L1 trapped in the endosomal compartments via exosomes. To determine whether 6J1 may induce the secretion of PD-L1 via exosomes, HeLa cells are treated with or without 6J1 (1 μM) for 24 h. The supernatant is collected. Inventors purify the exosomes from the supernatant of HeLa cells by sequential centrifugation. The concentration of extracellular vesicle is determined using a Nanosight nanoparticle analyzer. And HeLa cells are treated with or without 6J1 (1 μM) for 48 h. The cell and supernatant are collected for Western Blot analysis. […] Moreover, the activity of Rab27a in HeLa cells treated with or without 6J1 (1 μM) is examined with a GST-SHD pulldown assay.

In the case of `OCCOCCN(c1ccccc1)c1nc(N/N=C/c2cccc(I)c2)nc(N2CCOCC2)n1` [Compound 6J1], the “tumor growth of mouse lung cancer” value [1] is reported as “significantly inhibits the tumor growth of mouse lung cancer”, the “endocytic trafficking (fluorescence intensity of DQ-BSA-labeled cells)” value [2] is reported as “dramatically inhibit endocytic trafficking” and the “recycling endosomal trafficking of transferrin (mean fluorescence intensity)” value [3] is reported as “effectively inhibit the recycling endosomal trafficking of transferrin; also recorded: performs best”. For the same compound, the oral bioavailability [4] was “good oral bioavailability”, the EGFR degradation [5] was “blocks the EGFR degradation” and the “secretion of various chemokines from 4T1 cells” value [6] was “markedly induces the secretion of various chemokines”. The “6J1-induced decrease of cell surface PD-L1 levels” value ([7]; 4T1-shRab27A cells) was “does not influence the 6J1-induced decrease of cell surface PD-L1 levels”, the “level of cell surface PD-L1” value ([7]; 4T1 cells, 24 h) was “decreases the level of cell surface PD-L1” and the “activity of Rab27a-GTPase” value [8] was “significantly increases the activity of Rab27a-GTPase”.
